Values of other authors, collected in paper PMC12697872, “Rethinking the AI Paradigm for Solubility Prediction of Drug‑Like Compounds with Dual‐Perspective Modeling and Experimental Validation” (Advanced Science, 2025).

conditions: discarded ambiguous entries of DrugBank database; ref DrugBank database (version 5.1.12) 24; cited from earlier work

For `Oc1ccc2c(c1)[C@@]13CCCC[C@@]1(O)[C@@H](C2)N(CC1CCC1)CC3` [42408-82-2], the “Experimental solubility (descriptive)” value is listed as “Moderate”.

same assay, conditions: experimental aqueous solubility as logS, sheet "DrugBank" of Supplement 2; ref DrugBank; cited from earlier work

In order of rising ex_logS:
1. COC1=CC(=O)C[C@@H](C)[C@]12Oc1c(Cl)c(OC)cc(OC)c1C2=O [Griseofulvin]  -4.611
2. CC(=O)[C@H]1CC[C@H]2[C@@H]3CCC4=CC(=O)CC[C@]4(C)[C@H]3CC[C@]12C [progesterone]  -4.42
3. O=C(O)c1cc(-c2ccc(F)cc2F)ccc1O [Diflunisal]  -4.237
4. COc1c(C)c2c(c(O)c1C/C=C(\C)CCC(=O)OCCN1CCOCC1)C(=O)OC2 [Mycophenolate mofetil]  -4.004
5. CC(C)N(CCC(C(N)=O)(c1ccccc1)c1ccccn1)C(C)C (stereo not shown) [Disopyramide]  -3.879
6. Cc1ccccc1N1C(=O)c2cc(S(N)(=O)=O)c(Cl)cc2NC1C (stereo not shown) [Metolazone]  -3.783
7. C[C@H]1C[C@H]2[C@@H]3CCC4=CC(=O)C=C[C@]4(C)[C@@]3(F)[C@@H](O)C[C@]2(C)[C@@]1(O)C(=O)CO [Betamethasone]  -3.771
8. Nc1ccc(S(=O)(=O)Nc2ncccn2)cc1 [Sulfadiazine]  -3.512
9. C[C@]12C[C@H](O)[C@H]3[C@@H](CCC4=CC(=O)CC[C@@]43C)[C@@H]1CC[C@@H]2C(=O)CO [corticosterone]  -3.24
10. CC1(C)S[C@@H]2[C@H](NC(=O)C(C(=O)O)c3ccccc3)C(=O)N2[C@H]1C(=O)O (stereo partly shown) [Carbenicillin]  -2.924
11. CC(OC(=O)NCC1(CC(=O)O)CCCCC1)OC(=O)C(C)C (stereo not shown) [Gabapentin enacarbil]  -2.819
12. CC(=O)Oc1ccc2c3c1O[C@H]1[C@@H](OC(C)=O)C=C[C@H]4[C@@H](C2)N(C)CC[C@@]341 [Diamorphine]  -2.789
13. CN1C(=O)NC(=O)C(C)(C2=CCCCC2)C1=O (stereo not shown) [Hexobarbital]  -2.735
14. CC(=O)Oc1c(C)cc(OCC(O)CNC(C)C)c(C)c1C (stereo not shown) [Metipranolol]  -2.72
15. Oc1ncnc2[nH]ncc12 [allopurinol]  -2.26
16. Cc1cccc(C)c1NC(=O)C1CCCCN1C (stereo not shown) [Mepivacaine]  -1.991
17. COc1ccc2c3c1O[C@H]1[C@@H](O)C=C[C@H]4[C@@H](C2)N(C)CC[C@@]341 [codeine]  -1.52
18. CN/C(=N/CCSCc1nc[nH]c1C)NC#N [Cimetidine]  -1.43
19. O=Cc1ccc(O)cc1 [P-Hydroxybenzaldehyde]  -1.16
20. CSCC[C@H](N)C(=O)O [Methionine]  -0.421
21. CC(C(=O)O)C(=O)O [Methylmalonic Acid]  0.7597

same assay, conditions: experimental aqueous solubility as logS, sheet "DrugBank"; ref DrugBank database; cited from earlier work

In order of rising ex_logS:
1. CC(C)n1c(/C=C/C(O)CC(O)CC(=O)O)c(-c2ccc(F)cc2)c2ccccc21 (stereo not shown) [Fluvastatin]  -5.952
2. COc1ccc2c(c1)c(CC(=O)O)c(C)n2C(=O)c1ccc(Cl)cc1 [Indomethacin]  -5.582
3. CNCCC=C1c2ccccc2CCc2ccccc21 [Nortriptyline]  -5.481
4. COC(=O)C1=C(C)NC(C)=C(C(=O)OCCN(C)Cc2ccccc2)C1c1cccc([N+](=O)[O-])c1 (stereo not shown) [Nicardipine]  -5.338
5. CCC(=O)O[C@]1(c2ccccc2)CCN(C)C[C@H]1CC [Betameprodine]  -5.285
6. COC(=O)OCOc1c2n(ccc1=O)N([C@@H]1c3ccccc3SCc3c1ccc(F)c3F)[C@@H]1COCCN1C2=O [Baloxavir marboxil]  -4.581
7. CN1CCN(C2=Nc3cc(Cl)ccc3Nc3ccccc32)CC1 [Clozapine]  -4.442
8. CC(=O)OCC(=O)[C@@]1(O)CC[C@H]2[C@@H]3CCC4=CC(=O)CC[C@]4(C)[C@H]3C(=O)C[C@@]21C [Cortisone acetate]  -4.304
9. CC(CN1c2ccccc2Sc2ccccc21)N(C)C (stereo not shown) [Promethazine]  -4.261
10. O=C(O)c1cccnc1Nc1cccc(C(F)(F)F)c1 [Niflumic acid]  -4.172
11. CCn1cc(C(=O)O)c(=O)c2ccc(-c3ccncc3)cc21 [Rosoxacin]  -4.149
12. CC(=O)[C@@]1(O)CC[C@H]2[C@@H]3C[C@H](C)C4=CC(=O)C=C[C@]4(C)[C@@]3(F)[C@@H](O)C[C@@]21C [Fluorometholone]  -4.0986
13. C[C@]12CC[C@H]3[C@@H](CCC4=CC(=O)CC[C@@]43C)[C@@H]1CC[C@@H]2O [Testosterone]  -4.091
14. CCCN(CCC)S(=O)(=O)c1ccc(C(=O)O)cc1 [Probenecid]  -4.022
15. CC(C)Cc1ccc(C(C)C(=O)O)cc1 (stereo not shown) [Ibuprofen]  -3.992
16. C[C@@H]1O[C@@H](OC[C@H]2O[C@@H](Oc3c(-c4ccc(O)c(O)c4)oc4cc(O)cc(O)c4c3=O)[C@H](O)[C@@H](O)[C@@H]2O)[C@H](O)[C@H](O)[C@H]1O [Rutin]  -3.689
17. NS(=O)(=O)c1cc2c(cc1C(F)(F)F)NC(Cc1ccccc1)NS2(=O)=O (stereo not shown) [Bendroflumethiazide]  -3.591
18. O=C(/C=C/c1cccc(S(=O)(=O)Nc2ccccc2)c1)NO [Belinostat]  -3.357
19. O=NN(CCCl)C(=O)NC1CCCCC1 [Lomustine]  -3.323
20. CN(C)[C@@H]1C(O)=C(C(N)=O)C(=O)[C@@]2(O)C(O)=C3C(=O)c4c(O)cccc4[C@@](C)(O)[C@H]3[C@H](O)[C@@H]12 [Oxytetracycline]  -3.168
21. CCCCOC(=O)c1ccc(N)cc1 [Butamben]  -3.14
22. CCC1(C2=CCCCCC2)C(=O)NC(=O)NC1=O [Heptabarbital]  -3.001
23. COc1ccc2[nH]c([S+]([O-])Cc3ncc(C)c(OC)c3C)nc2c1 (stereo not shown) [Omeprazole]  -2.983
24. Oc1ccc(OCc2ccccc2)cc1 [Monobenzone]  -2.902
25. Cn1cnc2c1c(=O)[nH]c(=O)n2C [Theobromine]  -2.737
26. CCCCC(C)(O)C/C=C/[C@H]1[C@H](O)CC(=O)[C@@H]1CCCCCCC(=O)OC (mixture of isomers) [Misoprostol]  -2.379
27. COC(=O)C(c1ccccc1)C1CCCCN1 (stereo not shown) [Methylphenidate]  -2.269
28. CN1C(=O)CCS(=O)(=O)C1c1ccc(Cl)cc1 (stereo not shown) [Chlormezanone]  -2.039
29. CCn1cc(C(=O)O)c(=O)c2cc(F)c(N3CCNCC3)nc21 [Enoxacin]  -1.97
30. Nc1nc(F)nc2c1ncn2[C@@H]1O[C@H](CO)[C@@H](O)[C@@H]1O [Fludarabine]  -1.907
31. CCOC(=O)[C@H](CCc1ccccc1)N[C@H]1CCc2ccccc2N(CC(=O)O)C1=O [Benazepril]  -1.349
32. Nc1ccn([C@@H]2O[C@H](CO)[C@@H](O)C2(F)F)c(=O)n1 [Gemcitabine]  -1.236
33. N[C@@H](Cc1c[nH]c2ccccc12)C(=O)O [Tryptophan]  -1.183
34. O=C(OCCO)c1ccccc1O [Glycol salicylate]  -1.143
35. COc1ccccc1OCC(O)COC(N)=O (stereo not shown) [Methocarbamol]  -0.9845
36. NNCCc1ccccc1 [Phenelzine]  -0.6703
37. Nc1ccn(C[C@@H](CO)OCP(=O)(O)O)c(=O)n1 [Cidofovir]  -0.2154
38. Cn1c(=O)c2c(ncn2CC(O)CO)n(C)c1=O (stereo not shown) [Dyphylline]  0.1172
39. OC[C@H]1O[C@@](CO)(O[C@H]2O[C@H](CO)[C@@H](O)[C@H](O)[C@H]2O)[C@@H](O)[C@@H]1O [Sucrose]  0.7878
